In patent publication US20210380988A1, “Reducing Prominin2-Mediated Resistance to Ferroptotic Cell Death” (University of Massachusetts, priority 2020, published 2021):
Where a SMILES comes first, the peptide text is derived from it. The star is where a group is joined. Cbz = O=C(OCc1ccccc1)*; CH2F = FC*

What was measured:
Assay type in all cases: cell-based
prominin2 [1] = assay: PROM2 mRNA (qPCR) and prominin2 protein (immunoblot) expression in MCF10A cells; conditions: for prominin2 mRNA and protein expression: adherent MCF10A, 2 hrs, 5 μM RSL3, 250 μM H2O2
Procedure: (§1) Biochemical experiments: Immunoblotting and qPCR were performed as described (Brown C W, 2017). Briefly, for immunoblotting, cell lysates were extracted using radioimmunoprecipitation assay (RIPA) buffer (Boston Bioproducts). Extracts were separated by SDS PAGE using the specified antibodies. Immunoprecipitation was performed on lysates isolated using NP-40 buffer (Boston Bioproducts). Lysates were pre-cleared prior to overnight incubation with the primary antibody and protein A agarose beads (Sigma-Aldrich). Immune complexes were separated by SDS PAGE and immunoblotted as described in figure legends. RNA was isolated from cells (BioBasic) and cDNA was generated using the All in One cDNA Synthesis SuperMix (BioScript Solutions). qPCR was performed using a SYBR green master mix (BioScript Solutions). Sequences for primers used were as follows: […]

HSF1 [2] = assay: HSF1 mRNA, protein, S326 phosphorylation and nuclear localization in MCF10A cells; conditions: for time after treatment at which the increase in HSF1 mRNA peaked: 25 uM 4HNE or 5 uM RSL3; for expression of HSF1 mRNA by qPCR: 25 uM 4HNE or 5 uM RSL3, 0 to 120 minutes; for HSF1 protein expression and phosphorylation at S326: after 60 minutes of exposure
Procedure: as §1
(§2) Immunofluorescence microscopy: For adherent cells, 8 well chamber slides (Mattek) were coated with 1 μg/mL laminin (Invitrogen). Cells (5.0×10^4 per well) were plated overnight and then treated for two hours with either DMSO or RSL3, fixed in 4% paraformaldehyde and permeabilized in 0.1% Triton (JT Baker). Slides were blocked in 0.5% BSA (Boston Bioproducts), incubated in antibody overnight at 4° C., washed in PBS and incubated in secondary antibody for 1 hr at room temperature. Slides were washed and mounted in Vectashield with DAPI (Vector Labs). For ECM-detached experiments, cells were trypsinized and plated (5.0×10^5 per well) in 60 mm low-adherent plates (Sumitomo Bakelite) for two hr, collected and spun down prior to being fixed and stained as described above. Slides were imaged on a Zeiss or a Nikon A-1 confocal microscope.

HSF1 [3] = assay: as above; conditions: after 60 minutes of exposure
Hs578t cells [4] = assay: Survival of adherent cells in response to GPX4 inhibition (crystal violet); conditions: for sensitivity to compound in prominin2 knock-down cells compared to control cells: prominin2 siRNA 48 hours, compound 24 hrs
Procedure: (§3) Cell-based assays: Assays to assess survival in response to matrix detachment were performed as described (Brown C W, 2017). To assay survival in response to GPX4 inhibition, adherent cells in 96 well plates (1.0×10^4 per well) were treated with either DMSO, RSL3, ML210, FIN56 or erastin for 24 hrs with and without ferrostatin-1 or DFO. Subsequently, cells were fixed in 4% paraformaldehyde (Boston BioProducts), stained with crystal violet (Sigma) and read on a microplate reader (Beckman Colter) at absorbance 595. Absorbances were normalized to DMSO.

MCF10A cells [5] = assay: as above; conditions: for sensitivity to compound in prominin2 knock-down cells compared to control cells: prominin2 siRNA 48 hours, compound 24 hrs
Procedure: as §3

MDA-MB-231 cells [6] = assay: as above; conditions: for cell death in response to compound with exogenous prominin2 expression: MDA-MB-231, prominin2 expression construct vs vector control
Procedure: as §3

prominin2 [7] = assay: PROM2 mRNA (qPCR) and prominin2 protein (immunoblot) expression in Hs578t cells; conditions: adherent Hs578t, 2 hrs; 5 μM RSL3, 250 μM H2O2
Procedure: as §1

prominin2 [8] = assay: PROM2 mRNA (qPCR) and prominin2 protein (immunoblot) expression in MDA-MB-231 cells; conditions: adherent MDA-MB-231, RSL3 2 hrs
Procedure: as §1

prominin1 (CD133) = assay: PROM1 expression by qPCR; conditions: MCF10A and Hs578t cells, 5 μM RSL3, 2 hrs (FIG. 8A)
Procedure: as §1

Hs578t cells [9] = assay: Total free iron (Iron Assay Kit)
Procedure: (§4) Total free iron was quantified using the Iron Assay Kit (Abcam) per manufacturer's specifications. Briefly, adherent cells in 10 cm plates (1.0×10^6/well) were treated with either DMSO or RSL3 for 2 hrs, lysed and supernatant was reduced using the provided iron reducer before the mixture was reacted with an iron probe. Plates were read at 595 nm and total iron concentration was obtained using an iron standard curve.

MCF10A cells [10] = assay: Total free iron (Iron Assay Kit)
Procedure: as §4

MDA-MB-231 cells [11] = assay: Total free iron (Iron Assay Kit); conditions: MDA-MB-231 vector control, RSL3 2 hrs; prevented by prominin2 expression
Procedure: as §4

MCF10A cells [12] = assay: Multivesicular body formation (TSG101 immunofluorescence, TEM)
Procedure: as §2
Transmission Electron Microscopy: Adherent siControl and siProminin2 cells were treated with DMSO or RSL3 (5 μM) for two hr. ECM-detached siControl and siProminin2 cells were maintained for 2 hrs in low-adherence plates. All cells were fixed by adding 2.5% glutaraldehyde (v/v) in 0.1 M Na cacodylate buffer (pH 7.2) and processed for TEM. The samples were examined on a FEI Tecnai 12 BT transmission electron microscope using 100 Kv accelerating voltage. Images were captured using a Gatan TEM CCD camera.

Hs578t cells [13] = assay: Multivesicular body formation (TSG101 immunofluorescence); conditions: RSL3 2 hrs
Procedure: as §2

MCF10A and Hs578t cells = assay: Exosome isolation by ultracentrifugation (protein, ICP-MS iron)
Procedure: Exosome isolation: Cells were cultured for 24 hrs in their respective media containing extracellular vesicle (EV) free serum and treated with RSL3 for 24 hours. Culture supernatants were centrifuged at 4° C. at 1000 RPM for 5 min, 3000 RPM for 10 min, 4000 RPM for 30 min prior to ultracentrifugation at 22,000 RPM for 140 min at 4° C. Pellets were resuspended in cold PBS and centrifuged again under the same conditions. For immunoblotting, pellets were lysed in RIPA buffer, centrifuged at 10,000 RPM for 15 min and protein concentration was determined by Bradford Assay (BioRad). For TEM, PBS was removed and 20 μL of the exosome preparation was fixed and processed. For ICP-mass spec, exosome-containing pellet was resuspended in 0.5 mL PBS and centrifuged in a speed-vac at 45° C. Samples were sent to the UMASS Mass Spectrometry Core where they were digested in 100 μL HNO3, heated to 65° C. for 20 min and diluted to 2 mL with ddH2O before analysis.

Hs578t cells [14] = assay: Survival in response to matrix (ECM) detachment; conditions: 24 hrs, ferrostatin-1 (2 μM), ZVAD-fmk (25 μM), deferoxamine
Procedure: as §3

MCF10A cells [15] = assay: Survival in response to matrix (ECM) detachment; conditions: 24 hrs, ferrostatin-1 (2 μM), ZVAD-fmk (25 μM), deferoxamine
Procedure: as §3

CCCCCC(O)/C=C/C=O (centres unmarked) [4HNE, 4-hydroxynonenal]
PROM2 transcription (prominin2 [1]; mechanism dependent upon HSF1, cell line not named at b183): stimulates PROM2 transcription
time after treatment at which the increase in HSF1 mRNA peaked (HSF1 [2]): 15 min
expression of HSF1 mRNA by qPCR (HSF1 [2]): significant increase
HSF1 protein expression and phosphorylation at S326 (HSF1 [2]): increased HSF1 protein expression levels as well as phosphorylation at S326
HSF1 expression and nuclear localization (HSF1 [3]): increased

Cc1ccc(-n2nc(C(C)(C)C)cc2NC(=O)Nc2ccc(OCCN3CCOCC3)c3ccccc23)cc1 [BIRB]
induction and phosphorylation of HSF1 following 4HNE or RSL3 treatment (HSF1 [2]; 10 uM BIRB pretreatment): prevented the induction and phosphorylation of HSF1
increase in HSF1 expression and nuclear localization, treatment prior to 4HNE or RSL3 (HSF1 [2]; 10 uM BIRB pretreatment 15 minutes): significantly reduced the increase in expression and nuclear localization
4HNE- or RSL3-driven increase in HSF1 expression on p38 inhibition (HSF1 [2]; pre-treated with 10 uM BIRB, after 30 minutes of treatment): reduced the 4HNE- or RLS3-driven increase in HSF1 to basal levels

O=S(=O)(NC1CCCCC1)c1ccc2c(c1)C(=NO)c1cc(S(=O)(=O)NC3CCCCC3)ccc1-2 [FIN56]
sensitivity to compound in prominin2 knock-down cells compared to control cells (Hs578t cells [4]; Hs578t): significant increase in sensitivity
sensitivity to compound in prominin2 knock-down cells compared to control cells (MCF10A cells [5]; MCF10A): significant increase in sensitivity
cell death in response to compound with exogenous prominin2 expression (MDA-MB-231 cells [6]): sufficient to inhibit cell death

O=C(/C=C/c1ccc(/C=C/C(=O)Nc2ccc(C3=NCCN3)cc2)cc1)Nc1ccc(C2=NCCN2)cc1 [GW4869]
sensitivity of cells to RSL3 on inhibition of exosome release (Hs578t cells [4]; Hs578t, RSL3 (5 μM) and GW4869 (20 μM), 24 hrs): increased the sensitivity
sensitivity of cells to RSL3 on inhibition of exosome release (MCF10A cells [5]; MCF10A, RSL3 (5 μM) and GW4869 (20 μM), 24 hrs): increased the sensitivity

OO [H2O2]
prominin2 mRNA and protein expression (prominin2 [1]): did not increase prominin2 expression
prominin2 mRNA and protein expression (prominin2 [7]): did not increase prominin2 expression

Cl.N [NH4Cl]
effect on cell survival following GPX4 inhibition (Hs578t cells [4]; Hs578t, 20 mM NH4Cl pre-treatment 60 min, then with RSL3 24 hrs (FIG. 10D)): had no effect on cell survival

COC(=O)c1ccc([C@@H]2c3[nH]c4ccccc4c3C[C@@H](C(=O)OC)N2C(=O)CCl)cc1 [RSL3]
sensitivity to compound in prominin2 knock-down cells compared to control cells (Hs578t cells [4]; Hs578t): significant increase in sensitivity
RSL3 concentrations at which cells were resistant to RSL3-induced cell death (Hs578t cells [4]; adherent Hs578t, 24 hrs, FIG. 1F): up to 2.5
sensitivity to compound in prominin2 knock-down cells compared to control cells (MCF10A cells [5]; MCF10A): significant increase in sensitivity
RSL3 concentrations at which cells were resistant to RSL3-induced cell death (MCF10A cells [5]; adherent MCF10A, 24 hrs, FIG. 1F): up to 2.5
cell death in response to compound with exogenous prominin2 expression (MDA-MB-231 cells [6]): sufficient to inhibit cell death
RSL3 concentrations by which cells were killed (MDA-MB-231 cells [6]; adherent MDA-MB-231, 24 hrs, FIG. 1F): ≥ 0.5 µM
prominin2 mRNA and protein expression (prominin2 [1]): increased prominin2 mRNA and protein expression
prominin2 mRNA and protein expression (prominin2 [7]): increased prominin2 mRNA and protein expression
induction of prominin2 (prominin2 [8]): did not induce prominin2
expression of prominin1 (CD133) (prominin1 (CD133)): not altered significantly
time after treatment at which the increase in HSF1 mRNA peaked (HSF1 [2]): 15 min
expression of HSF1 mRNA by qPCR (HSF1 [2]): significant increase
HSF1 protein expression and phosphorylation at S326 (HSF1 [2]): increased HSF1 protein expression levels as well as phosphorylation at S326
free iron concentration, RSL3-treated vs control cells (Hs578t cells [9]; 5 μM RSL3, 2 hrs): no significant difference
concentration of free iron following RSL3 treatment when either prominin2 or both FTH1 and FTL were silenced (Hs578t cells [9]; siRNA 48 hrs, RSL3 2 hrs): increase
free iron concentration, RSL3-treated vs control cells (MCF10A cells [10]; 5 μM RSL3, 2 hrs): no significant difference
concentration of free iron following RSL3 treatment when either prominin2 or both FTH1 and FTL were silenced (MCF10A cells [10]; siRNA 48 hrs, RSL3 2 hrs): increase
free iron in response to RSL3 in control cells (MDA-MB-231 cells [11]): increase in iron
TSG101-positive structures vs vehicle control-treated cells (MCF10A cells [12]; RSL3 2 hrs): more TSG101-positive structures
MVBs per cell by TEM vs control cells (MCF10A cells [12]; RSL3, effect not observed in prominin2-silenced cells): significantly more MVBs per cell
TSG101-positive structures vs vehicle control-treated cells (Hs578t cells [13]): more TSG101-positive structures
protein in the exosome preparation (MCF10A and Hs578t cells; 1 μM RSL3, 24 hours, exosomal protein in control cells not detected): significant amount of protein
iron in exosomes by ICP-MS (MCF10A and Hs578t cells; exosomes harvested from RSL3-treated cells): 3400 ng per exosome collection sample
HSF1 expression and nuclear localization (HSF1 [3]): increased

COC(=O)C[C@H](NC(=O)[C@H](C)NC(=O)[C@@H](NC(=O)OCc1ccccc1)C(C)C)C(=O)CF [ZVAD-fmk] (Cbz-Val-Ala-Asp(OMe)-CH2F)
rescue of cell viability of ECM-detached prominin2-silenced cells by co-treatment (Hs578t cells [14]): not
rescue of cell viability of ECM-detached prominin2-silenced cells by co-treatment (MCF10A cells [15]): not

C#Cc1cccc(Nc2ncnc3cc(OCCOC)c(OCCOC)cc23)c1 [erlotinib]
sensitivity to RSL3 on co-treatment with other therapeutics (MCF10A cells [5]; MCF10A, 100 nM Dasatinib or 25 uM Erlotinib with RSL3, 24 hours): did not significantly improve sensitivity

CCOC(=O)c1ccc(NC2CCCCC2)c(N)c1 [ferrostatin-1]
rescue of cell death triggered by GPX4 inhibition in FTH1 and FTL knock-down cells (Hs578t cells [4]; Hs578t, RSL3 24 hrs, 100 uM deferoxamine): rescued
rescue of loss of cell viability in prominin2-depleted cells (Hs578t cells [4]; Hs578t, RSL3 (5 μM) and ferrostatin-1 (2 μM), 24 hrs): completely rescued
rescue of cell death triggered by GPX4 inhibition in FTH1 and FTL knock-down cells (MCF10A cells [5]; MCF10A, RSL3 24 hrs, 100 uM deferoxamine): rescued
rescue of loss of cell viability in prominin2-depleted cells (MCF10A cells [5]; MCF10A, RSL3 (5 μM) and ferrostatin-1 (2 μM), 24 hrs): completely rescued
rescue of RSL3-induced cell death in cells with diminished TSG101 expression (MCF10A cells [5]; MCF10A, TSG101 siRNA 48 hours, RSL3 and ferrostatin-1 24 hrs (FIG. 4C)): rescued
rescue of cell viability of ECM-detached prominin2-silenced cells by co-treatment (Hs578t cells [14]): rescued
rescue of cell viability of ECM-detached prominin2-silenced cells by co-treatment (MCF10A cells [15]): rescued
